Laboratory results reported in ChEMBL document CHEMBL4028802, “DILIrank: the largest reference drug list ranked by the risk for developing drug-induced liver injury in humans” (Drug Discov Today, 2016).
Non-standard residues stand in square brackets, D forms with d. Residues, ends and D or L forms follow the SMILES beside them. dPhe(4-Cl) = N[C@H](Cc1ccc(Cl)cc1)C(=O)O; d2Nal = N[C@H](Cc1ccc2ccccc2c1)C(=O)O; dCit = NC(=O)NCCC[C@@H](N)C(=O)O; d3Pal = N[C@H](Cc1cccnc1)C(=O)O

How the values were obtained:
[1] = species: Homo sapiens; experiment: Liver toxicity in human assessed as induction of drug-induced liver injury by measuring verified drug-induced liver injury concern status
[2] = species: Homo sapiens; experiment: Liver toxicity in human assessed as induction of drug-induced liver injury by measuring severity class index
For DILI severity class in this document: key of the grades not given here.

Row | Structure (SMILES) | DILI_Concern [1] | DILI_severity_class [2]
1 | CC=CC1=C(C(=O)O)N2C(=O)[C@@H](NC(=O)[C@H](N)c3ccc(O)cc3)[C@H]2SC1 [CEFPROZIL] | Less-Dili-Concern | 4
2 | CC(C)(O/N=C(\C(=O)N[C@@H]1C(=O)N2C(C(=O)[O-])=C(C[n+]3ccccc3)CS[C@H]12)c1csc(N)n1)C(=O)O [CEFTAZIDIME] | Less-Dili-Concern | 3
3 | Nc1nc(/C(=C/CC(=O)O)C(=O)N[C@@H]2C(=O)N3C(C(=O)O)=CCS[C@H]23)cs1 [CEFTIBUTEN] | Ambiguous-Dili-Concern | 3
4 | CO/N=C(\C(=O)N[C@@H]1C(=O)N2C(C(=O)O)=CCS[C@H]12)c1csc(N)n1 [CEFTIZOXIME] | Ambiguous-Dili-Concern | 4
5 | CO/N=C(\C(=O)N[C@@H]1C(=O)N2C(C(=O)O)=C(CSc3nc(=O)c(=O)[nH]n3C)CS[C@H]12)c1csc(N)n1 [CEFTRIAXONE] | Less-Dili-Concern | 4
6 | CO/N=C(\C(=O)N[C@@H]1C(=O)N2C(C(=O)O)=C(COC(N)=O)CS[C@H]12)c1ccco1 [CEFUROXIME] | Less-Dili-Concern | 5
7 | Cc1ccc(-c2cc(C(F)(F)F)nn2-c2ccc(S(N)(=O)=O)cc2)cc1 [CELECOXIB] | Less-Dili-Concern | 3
8 | CC1=C(C(=O)O)N2C(=O)[C@@H](NC(=O)[C@H](N)c3ccccc3)[C@H]2SC1 [CEPHALEXIN ANHYDROUS] | Less-Dili-Concern | 4
9 | CC1=C(C(=O)O)N2C(=O)[C@@H](NC(=O)[C@H](N)C3=CCC=CC3)[C@H]2SC1 [CEPHRADINE] | Ambiguous-Dili-Concern | 4
10 | O=C(O)COCCN1CCN(C(c2ccccc2)c2ccc(Cl)cc2)CC1 (configuration not stated) [CETIRIZINE] | Less-Dili-Concern | 3
11 | CC(=O)N[C@H](Cc1ccc2ccccc2c1)C(=O)N[C@H](Cc1ccc(Cl)cc1)C(=O)N[C@H](Cc1cccnc1)C(=O)N[C@@H](CO)C(=O)N[C@@H](Cc1ccc(O)cc1)C(=O)N[C@H](CCCNC(N)=O)C(=O)N[C@@H](CC(C)C)C(=O)N[C@@H](CCCNC(=N)N)C(=O)N1CCC[C@H]1C(=O)N[C@H](C)C(N)=O [CETRORELIX] (Ac-[d2Nal][dPhe(4-Cl)][d3Pal]SY[dCit]LRP[dA]-NH2) | Ambiguous-Dili-Concern | 3
12 | CC1OC2(CS1)CN1CCC2CC1 (configuration not stated) [CEVIMELINE] | Ambiguous-Dili-Concern | 3
13 | C[C@H](CCC(=O)O)[C@H]1CC[C@H]2[C@@H]3[C@H](O)C[C@@H]4C[C@H](O)CC[C@]4(C)[C@H]3CC[C@]12C [CHENODIOL] | Ambiguous-Dili-Concern | 8
14 | O=C(O)CCCc1ccc(N(CCCl)CCCl)cc1 [CHLORAMBUCIL] | Less-Dili-Concern | 3
15 | O=C(N[C@H](CO)[C@H](O)c1ccc([N+](=O)[O-])cc1)C(Cl)Cl [CHLORAMPHENICOL] | No-Dili-Concern | 0
16 | CN1CCN(C(c2ccccc2)c2ccc(Cl)cc2)CC1 (configuration not stated) [CHLORCYCLIZINE] | Less-Dili-Concern | 0
17 | CNC1=Nc2ccc(Cl)cc2C(c2ccccc2)=[N+]([O-])C1 [CHLORDIAZEPOXIDE] | Less-Dili-Concern | 5
18 | CN1C(=O)CCS(=O)(=O)C1c1ccc(Cl)cc1 (configuration not stated) [CHLORMEZANONE] | Most-Dili-Concern | 8
19 | CCN(CC)CCCC(C)Nc1ccnc2cc(Cl)ccc12 (configuration not stated) [CHLOROQUINE] | Less-Dili-Concern | 3

Row | Structure (SMILES) | DILI_Concern [1] | DILI_severity_class [2]
20 | NS(=O)(=O)c1cc2c(cc1Cl)N=CNS2(=O)=O [CHLOROTHIAZIDE] | Less-Dili-Concern | 2
21 | CN(C)CCC(c1ccc(Cl)cc1)c1ccccn1 (configuration not stated) [CHLORPHENIRAMINE] | No-Dili-Concern | 0
22 | CN(C)CCCN1c2ccccc2Sc2ccc(Cl)cc21 [CHLORPROMAZINE] | Less-Dili-Concern | 2
23 | CCCNC(=O)NS(=O)(=O)c1ccc(Cl)cc1 [CHLORPROPAMIDE] | Less-Dili-Concern | 2
24 | NS(=O)(=O)c1cc(C2(O)NC(=O)c3ccccc32)ccc1Cl (configuration not stated) [CHLORTHALIDONE] | Ambiguous-Dili-Concern | 2
25 | Nc1ccn(C[C@@H](CO)OCP(=O)(O)O)c(=O)n1.O.O [CIDOFOVIR] | Ambiguous-Dili-Concern | 5
26 | O=C1CCc2cc(OCCCCc3nnnn3C3CCCCC3)ccc2N1 [CILOSTAZOL] | Ambiguous-Dili-Concern | 5
27 | CN/C(=N/CCSCc1nc[nH]c1C)NC#N [CIMETIDINE] | Less-Dili-Concern | 2
28 | O=C(O)c1cc(-c2ccccc2)nc2ccccc12 [CINCHOPHEN] | Most-Dili-Concern | 8
29 | O=C(O)c1cn(C2CC2)c2cc(N3CCNCC3)c(F)cc2c1=O [CIPROFLOXACIN] | Most-Dili-Concern | 7
30 | COc1ccc(C[C@@H]2c3cc(OC)c(OC)cc3CC[N@+]2(C)CCC(=O)OCCCCCOC(=O)CC[N@@+]2(C)CCc3cc(OC)c(OC)cc3[C@H]2Cc2ccc(OC)c(OC)c2)cc1OC.O=S(=O)([O-])c1ccccc1.O=S(=O)([O-])c1ccccc1 [CISATRACURIUM BESYLATE] | No-Dili-Concern | 0
31 | CN(C)CCCC1(c2ccc(F)cc2)OCc2cc(C#N)ccc21 (configuration not stated) [CITALOPRAM] | Less-Dili-Concern | 7
32 | Nc1nc(Cl)nc2c1ncn2[C@H]1C[C@H](O)[C@@H](CO)O1 [CLADRIBINE] | Ambiguous-Dili-Concern | 3
33 | CC[C@H]1OC(=O)[C@H](C)[C@@H](O[C@H]2C[C@@](C)(OC)[C@@H](O)[C@H](C)O2)[C@H](C)[C@@H](O[C@@H]2O[C@H](C)C[C@H](N(C)C)[C@H]2O)[C@](C)(OC)C[C@@H](C)C(=O)[C@H](C)[C@@H](O)[C@]1(C)O [CLARITHROMYCIN] | Most-Dili-Concern | 8
34 | CN1CCC[C@@H]1CCO[C@](C)(c1ccccc1)c1ccc(Cl)cc1 [CLEMASTINE] | No-Dili-Concern | 0
35 | CCCC(=O)OCOC(=O)C1=C(C)NC(C)=C(C(=O)OC)C1c1cccc(Cl)c1Cl (configuration not stated) [CLEVIDIPINE] | No-Dili-Concern | 0
36 | CCC[C@@H]1C[C@@H](C(=O)N[C@@H]([C@H]2O[C@H](SC)[C@H](OP(=O)(O)O)[C@@H](O)[C@H]2O)[C@H](C)Cl)N(C)C1 [CLINDAMYCIN PHOSPHATE] | Ambiguous-Dili-Concern | 3
37 | CCC[C@@H]1C[C@@H](C(=O)N[C@@H]([C@H]2O[C@H](SC)[C@H](O)[C@@H](O)[C@H]2O)[C@H](C)Cl)N(C)C1 [CLINDAMYCIN] | Less-Dili-Concern | 3
38 | Nc1nc(Cl)nc2c1ncn2[C@@H]1O[C@H](CO)[C@@H](O)[C@@H]1F [CLOFARABINE] | Ambiguous-Dili-Concern | 8

Row | Structure (SMILES) | DILI_Concern [1] | DILI_severity_class [2]
39 | CCOC(=O)C(C)(C)Oc1ccc(Cl)cc1 [CLOFIBRATE] | Less-Dili-Concern | 3
40 | CN(C)CCCC1c2ccccc2Nc2ccc(Cl)cc21 (configuration not stated) [CLOMACRAN] | Most-Dili-Concern | 8
41 | COc1ccc2c(C(=O)c3ccc(Cl)cc3)c(C)n(CC(=O)O)c2c1 [CLOMETACIN] | Most-Dili-Concern | 8
42 | CCN(CC)CCOc1ccc(C(=C(Cl)c2ccccc2)c2ccccc2)cc1 [CLOMIPHENE] | Less-Dili-Concern | 3
43 | CN(C)CCCN1c2ccccc2CCc2ccc(Cl)cc21 [CLOMIPRAMINE] | Most-Dili-Concern | 8
44 | O=C1CN=C(c2ccccc2Cl)c2cc([N+](=O)[O-])ccc2N1 [CLONAZEPAM] | Less-Dili-Concern | 3
45 | Clc1cccc(Cl)c1N=C1NCCN1 [CLONIDINE] | Ambiguous-Dili-Concern | 3
46 | COC(=O)[C@H](c1ccccc1Cl)N1CCc2sccc2C1 [CLOPIDOGREL] | Less-Dili-Concern | 7
47 | O=C(O)C1N=C(c2ccccc2)c2cc(Cl)ccc2NC1=O (configuration not stated) [CLORAZEPIC ACID] | Ambiguous-Dili-Concern | 3
48 | Clc1ccccc1C(c1ccccc1)(c1ccccc1)n1ccnc1 [CLOTRIMAZOLE] | Less-Dili-Concern | 3
49 | Cc1onc(-c2ccccc2Cl)c1C(=O)N[C@@H]1C(=O)N2[C@@H]1SC(C)(C)[C@@H]2C(=O)O [CLOXACILLIN] | Less-Dili-Concern | 3
50 | CN1CCN(C2=Nc3cc(Cl)ccc3Nc3ccccc32)CC1 [CLOZAPINE] | Most-Dili-Concern | 5
51 | COc1ccc2c3c1O[C@H]1[C@@H](O)C=C[C@H]4[C@@H](C2)N(C)CC[C@@]341 [CODEINE] | No-Dili-Concern | 0
52 | COc1cc2c(c(OC)c1OC)-c1ccc(OC)c(=O)cc1[C@@H](NC(C)=O)CC2 [COLCHICINE] | Ambiguous-Dili-Concern | 6
53 | Cc1nc2c([nH]1)-c1ccccc1N(C(=O)c1ccc(NC(=O)c3ccccc3-c3ccccc3)cc1)CC2 [CONIVAPTAN] | No-Dili-Concern | 0
54 | CC(=O)OCC(=O)[C@@]1(O)CC[C@H]2[C@@H]3CCC4=CC(=O)CC[C@]4(C)[C@H]3C(=O)C[C@@]21C [CORTISONE ACETATE] | No-Dili-Concern | 0
55 | CN(C)CCC=C1c2ccccc2C=Cc2ccccc21 [CYCLOBENZAPRINE] | Less-Dili-Concern | 5
56 | CC(=O)Oc1ccc(C(=C2CCCCC2)c2ccc(OC(C)=O)cc2)cc1 [CYCLOFENIL] | Most-Dili-Concern | 8
